Source: US20130296358A1, “3-SPIROCYCLIC PIPERIDINE DERIVATIVES AS GHRELIN RECEPTOR AGONISTS” (priority 2012, published 2013)

What was measured:
[1] = target: T1, human recombinant ghrelin receptor (GHS-R1a) (Homo sapiens, UniProt Q92847); experiment: Calcium assay, CHO-K1 cells expressing hGHS-R1a (Fluo-4); type: cell-based
T1 construct: host or cells: CHO-K1
Protocol: (§1) Chinese hamster ovary (CHO-K1) cells expressing human recombinant ghrelin receptor (GHS-R1a) were purchased from Euroscreen (ES-410-C) and propagated in UltraCHO medium containing glutamine and supplemented with 1% heat inactivated foetal calf serum (FCS), 100 U/ml penicillin, 100 mg/l streptomycin and 0.8 g/l geneticin. Cells were sub-cultured twice a week with a 1:10 dilution. For passaging, cells were washed with 1× DPBS without calcium and magnesium, trypsinised for 10 min with 0.05% Trypsin/EDTA and resuspended in cell culture medium.
Cells were diluted to achieve 1×10^6 cells/ml, seeded in 384-well black clear bottom CellBind plates at 25000 cells/well (25u1) and incubated overnight at 37° C./5% CO2 Cells were expected to be 85-90% confluent on the day of assay (checked under the microscope) to ensure a high quality assay. Media was manually removed and 40 μl of loading solution containing probenecid and Fluo-4 no wash dye (a calcium indicator, Invitrogen F36206) were added to each well. After 30 min at 37° C. followed by another 30 min at RT, cpds were added to the wells. To generate a dose response up to 30 μM, 10 mM compound stocks in 100% (v/v) DMSO were firstly diluted in 50% (v/v) DMSO. Then, serial dilutions aimed at a full logarithmic dose responses (8 point) were performed in assay buffer [1×HBSS, 20 mM Hepes, 0.1% (w/v) BSA] to give 2.5% (v/v) DMSO and 5× final compound concentrations. The final assay DMSO concentration was 0.5% (v/v). After loading the cells with Fluo-4 containing solution, plates were read on a CeIlLux instrument (Perkin Elmer). A protocol set up to add 10 μl of 5× compound and to read the plate for 60sec after adding the compound at 17th sec was used. Fluorescence excitation took place at 494 nm and emission at 516 nm. EC50 values of agonists were calculated by fitting the percent stimulation over background [(Max-Min)/Min] using the nonlinear logistic function of the Prism 5 software (GraphPad, USA).

[2] = target: T1, human recombinant ghrelin receptor (GHS-R1a); experiment: cAMP assay (HTRF), CHO-hGHS-R1a cells; type: cell-based; settings: relative to the ghrelin response (defined as 100%)
Protocol: as §1
The Homogeneous Time-Resolved Fluorescence (HTRF) cAMP dynamic 2 kit (Cisbio International, France) was used as follows. CHO-hGHS—R1a or CHO-rGHS—R1a cells were seeded in a volume of 25 μl culture media at 10,000 cells/well (400,000 cells/ml) in Greiner white 384-well high volume plates and incubated overnight (18-24 h) at 37° C./5% CO2. Then, media was removed and 6 μl assay buffer [HBSS, 10 mM Hepes, 0.2% (w/v) BSA, 1.7 mM IBMX, (pH7.4)] were added to the wells. To generate a dose response up to 30 μM, 10 mM compound stocks in 100% (v/v) DMSO were firstly diluted in 50% (v/v) DMSO followed by a further dilution into assay buffer. Then, 4 μl of 2.5× compound (dose response as 9 point log serial dilution in assay buffer from 30 μM as maximum concentration) were added to each well achieving a final DMSO assay concentration of 0.8% (v/v). 0.1 μM forskolin was added as positive control. After 30 min (rGHS—R1a cell line) or 60 min (hGHS—R1a cell line) incubation at 37° C./5% CO2, 5 μl of cAMP-d2 and 5 μl of anti-cAMP antibody-cryptate, (both made in lysis buffer), were added to the plate followed by 1 h incubation at RT. During this time, cAMP produced by the cells competed with cAMP-d2 for the anti-cAMP antibody-cryptate molecule. Then, the plate was read on the Pherastar instrument (BMG, Germany) at two different emission wavelengths ([…]). Increasing levels of endogenous cAMP produced by cells could be followed by a decrease of FRET fluorescent signal and viceversa. Values represented by a change in arbitrary fluorescence ratios (665/620) were converted into cAMP concentrations by using a standard curve, the reagents for which were supplied with the kit. EC50 values of agonists were calculated using the nonlinear logistic function of the Prism 5 software (GraphPad, USA). Emax were expressed as relative values of the ghrelin response, which was defined as 100%.

rat fundus = experiment: Rat fundus contractility assay (EFS-induced contraction of muscle strips); settings: for EC50: increase of EFS-induced contraction, mean of preparations from at least 3 animals; for Emax/% / Emax: relative to the response to ghrelin (100 nM), defined as 100%
Protocol: Male Sprague Dawley rats (180-250 g) were culled by cervical dislocation and the fundus was removed. Each fundus was placed on a Krebs Henseleit (KH) buffer soaked dissection dish and cut along the long curvature to form a flattened sheet that was pinned in each corner. Four adjacent longitudinal strips (10×3 mm) were cut and the mucosa removed by sharp dissection. Each muscle strip was mounted in a 10 ml organ bath containing oxygenated KH at 37° C. Each strip was connected to an isometric force transducer, calibrated initially using a 5 g weight. The signal (g tension) was amplified and responses recorded by a Powerlab data capture system, connected to a computer running Labchart software (version 5.0). Tissues were placed under 1 g tension for an equilibration period of 30 min or until the baseline tension had stabilised. Carbachol (CCh, 100 nM) was then administered to establish the maximum contractile response of each preparation. Tissues were washed thoroughly and left for 30 min to re-equilibrate. Next, the muscle strips underwent electrical field stimulation (EFS). Maximal EFS pulse trains of 12V, 5 Hz, 0.1 msec pulse width, for 2 sec every 60 sec were applied until consistent electrically-stimulated phasic contractions were recorded. The voltage was then reduced in 1V increments until a consistent submaximal (EC50-75) EFS response was observed. Ghrelin (100 nM) was administered and left until a maximum response was obtained. Tissues were then washed thoroughly and left for 30 min. Once the EFS-induced contraction had re-stabilised, cumulative additions (10 nM-10 μM) of each test compound were administered. Individual responses were calculated by determining the peak of the EFS-induced contraction minus the baseline. […] The mean EC50 value for compounds was generated from data obtained on stomach preparations from at least 3 different animals.

[3] = CHO-K1, relative to the Emax induced by MK-0677 (defined as 100%), read-out: hGHS-R1a Ca assay Emax/%

T1 sequence (Q92847 whole entry): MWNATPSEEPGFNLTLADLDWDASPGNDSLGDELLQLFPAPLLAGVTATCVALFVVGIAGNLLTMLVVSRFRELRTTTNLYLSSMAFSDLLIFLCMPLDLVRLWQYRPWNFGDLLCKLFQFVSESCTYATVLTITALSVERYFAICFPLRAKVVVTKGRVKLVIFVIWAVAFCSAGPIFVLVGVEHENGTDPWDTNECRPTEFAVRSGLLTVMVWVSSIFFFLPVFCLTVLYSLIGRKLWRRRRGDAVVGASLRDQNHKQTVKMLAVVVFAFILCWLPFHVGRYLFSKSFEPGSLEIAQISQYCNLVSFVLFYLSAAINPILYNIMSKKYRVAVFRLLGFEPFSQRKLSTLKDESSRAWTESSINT

| SMILES | Emax [1, 3] [%] | Emax [2] [%] | other results |
| --- | --- | --- | --- |
| CC(C)(N)C(=O)N[C@H](COCc1ccccc1)C(=O)N1CCCC2(C1)C(=O)NCC2c1ccccc1 (single isomer, unassigned) [Example 1.4] | 100 |  | hGHS-R1a cAMP assay Emax/% [2]: 127% |
| CC(C)N1CC(c2ccccc2)C2(CCCN(C(=O)[C@@H](COCc3ccccc3)NC(=O)C(C)(C)N)C2)C1=O (single isomer, unassigned) [Example 1.6] |  |  | EC50 (rat fundus): 373 nM; Emax/% (rat fundus): 70% |
| CN1CC(c2ccc(Cl)cc2)C2(CCCN(C(=O)[C@@H](COCc3ccccc3)NC(=O)C(C)(C)N)C2)C1=O (single isomer, unassigned) [Example 1.8] | 102 | 149 |  |
| CC(C)N1CC(c2ccc(F)cc2)C2(CCCN(C(=O)[C@@H](COCc3ccccc3)NC(=O)C(C)(C)N)C2)C1=O (single isomer, unassigned) [Example 1.18] |  |  | Emax (rat fundus; Rattus norvegicus): 117%; EC50 (rat fundus): 148 nM |
| CC(C)N1CC(c2ccc(F)cc2)C2(CCCN(C(=O)[C@@H](COCc3ccccc3)NC(=O)C(C)(C)N)C2)C1=O (single isomer, unassigned) [Example 1.19] |  |  | EC50 (rat fundus): 23 nM; Emax/% (rat fundus): 124% |
| CCN1CC(c2ccccc2)C2(CCCN(C(=O)[C@@H](COCc3ccccc3)NC(=O)C(C)(C)N)C2)C1=O (single isomer, unassigned) [Example 1.25] | 103 | 223 |  |
| CN1CC(c2ccccc2)C2(CCCN(C(=O)[C@@H](CCc3ccccc3)NC(=O)C(C)(C)N)C2)C1=O (single isomer, unassigned) [Example 1.28] | 106 | 194 |  |
| CN1CC(c2ccccc2)C2(CCCN(C(=O)[C@@H](CCCc3ccccc3)NC(=O)C(C)(C)N)C2)C1=O (single isomer, unassigned) [Example 1.33] |  |  | EC50 (rat fundus): 84 nM; Emax/% (rat fundus): 131% |
| CC(C)(N)C(=O)N[C@H](COCc1ccccc1)C(=O)N1CCCC2(C1)C(=O)NCC2c1ccccc1 (single isomer, unassigned) [Example 1.49] |  |  | hGHS-R1a cAMP assay Emax/% [2]: 88% |
| Cc1ccc(COC[C@@H](NC(=O)C(C)(C)N)C(=O)N2CCCC3(C2)C(=O)N(C)CC3c2ccccc2)cc1 (single isomer, unassigned) [Example 1.55] | 94 | 191 |  |
| CN1CC(c2ccc(F)cc2)C2(CCCN(C(=O)[C@@H](COCc3ccc(Cl)cc3)NC(=O)C(C)(C)N)C2)C1=O (single isomer, unassigned) [Example 1.57] | 84 | 173 |  |
| CN1CC(c2ccccc2)C2(CCCN(C(=O)[C@@H](COCC3CCCCC3)NC(=O)C(C)(C)N)C2)C1=O (single isomer, unassigned) [Example 1.60] | 98 | 171 |  |
| CN1C(=O)C2(CCCN(C(=O)[C@@H](COCc3ccccc3)NC(=O)C(C)(C)N)C2)C1c1ccccc1 (single isomer, unassigned) [Example 2.0(iii)] |  |  | EC50 (rat fundus): 70 nM; Emax/% (rat fundus): 70% |
| CC(C)N1CC(c2ccccc2)C2(CCCN(C(=O)[C@@H](Cc3c[nH]c4ccccc34)NC(=O)C(C)(C)N)C2)C1=O (single isomer, unassigned) [Example 3.0(ii)] |  |  | EC50 (rat fundus; Rattus norvegicus): 15 nM; Emax (rat fundus; Rattus norvegicus): 85% |
| COc1ccc(COC[C@@H](NC(=O)C(C)(C)N)C(=O)N2CCCC3(C2)C(=O)N(C)CC3c2ccccc2)cc1 (single isomer, unassigned) [Example 6.0(ii), 2-Amino-N—[(R)-1-(4-methoxy-benzyloxymethyl)-2-((4S,5R)-2-methyl-1-oxo-4-phenyl-2,7-diaza-spiro[4.5]dec-7-yl)-2-oxo-ethyl]-2-methyl-propionamide or 2-Amino-N—[(R)-1-(4-methoxy-benzyloxymethyl)-2-(4R,5S)-2-methyl-1-oxo-4-phenyl-2,7-diaza-spiro[4.5]dec-7-yl)-2-oxo-ethyl]-2-methyl-propionamide] | 103 | 268 |  |
| CC(C)(N)C(=O)N[C@H](COCc1ccccc1)C(=O)N1CCC2(CC1)CN(S(C)(=O)=O)c1ccccc12 [MK-0677, reference compound] |  |  | Emax ([1]; compared with ghrelin): same Emax as ghrelin |

More lines, main results first:

| Emax [1, 3] [%] | Emax [2] [%] | SMILES | other results |
| --- | --- | --- | --- |
| 104 | 145 | CN1N=C(c2ccccc2)C2(CCCN(C(=O)[C@@H](COCc3ccccc3)NC(=O)C(C)(C)N)C2)C1=O (mixture of isomers) [Example 1.47, 2-Amino-N-[(R)-1-benzyloxymetnyl-2-(3-methyl-4-oxo-1-phenyl-2,3,7-triaza-spiro[4.5]dec-1-en-7-yl)-2-oxo-ethyl]-2-methyl-propionamide] |  |
| 98 | 141 | Cc1ccccc1C1CN(C)C(=O)C12CCCN(C(=O)[C@@H](COCc1ccccc1)NC(=O)C(C)(C)N)C2 (single isomer, unassigned) [Example 1.51] |  |
| 89 | 212 | Cc1ccc(C2CN(C)C(=O)C23CCCN(C(=O)[C@@H](COCc2ccccc2)NC(=O)C(C)(C)N)C3)cc1 (single isomer, unassigned) [Example 1.53] |  |
| 73 | 189 | CN1CN(c2ccccc2)C2(CCCN(C(=O)[C@@H](COCc3ccccc3)NC(=O)C(C)(C)N)C2)C1=O (single isomer, unassigned) [Example 1.61] |  |
| 83 | 153 | CN1CC(c2ccccc2)C2(CCCN(C(=O)[C@@H](COCc3ccc(F)cc3)NC(=O)C(C)(C)N)C2)C1=O (single isomer, unassigned) [Example 7.0, 2-Amino-N—[(R)-1-(4-fluoro-benzyloxymethyl)-2-(4S,5R)-2-methyl-1-oxo-4-phenyl-2,7-diaza-spiro[4.5]clec-7-yl)-2-oxo-ethyl]-2-methyl-propionamide or 2-Amino-N—[(R)-1-(4-fluoro-benzyloxymethyl)-2-(4R,5S)-2-methyl-1-oxo-4-phenyl-2,7-diaza-spiro[4.5]clec-7-yl)-2-oxo-ethyl]-2-methyl-propionamide] |  |
